Read-outs that look alike come from different tables or passages of the source.

Data set [1] relates to Yamato (SS18-SSX fusion; BAF perturbed) cells. Description: Confluence perturbation (IncuCyte S3) in Yamato cells. In kind it is cell-based. The settings on record: 10 nM to 10^4 nM, single dose, 20-day period; FIG. 4, 16, 17; SW982 cells also tested. As for the experimental part:
FIG. 4, FIG. 16, and FIG. 17 are line graphs illustrating the confluence caused by Compound 172 and Compound 176 at various concentrations. The x-axis is time measured in days and the y axis is confluence measured as a percentage of control. The compounds were incubated at 10 nM, 32 nM, 100 nM, 316 nM, 1000 nM, and 10^4 nM concentrations at a single dose. The compounds were tested in a Yamato (SS18-SSX fusion; BAF perturbed) cells and SW982 (BAF wildtype) cells.
Compound 172 was serially diluted in DMSO and 200 nL were dispensed into 96 well tissue-culture treated plates by the Echo acoustic liquid handler. Yamato cells were counted and adjusted to 11,000 cells/mL with DMEM media supplemented with 10% heat-inactivated FBS. 200 ul of the cell suspension was dispensed into each well. The plate was sealed with a gas-permeable membrane and confluence was measured in a temperature- and humidity-controlled incubator (37° C., 5% CO2) over a 20-day period at 6-hour intervals by the IncuCyte S3. […]
Compound 176 and a comparator BRD9 inhibitor were serially diluted in DMSO and 200 nL were dispensed into 96 well tissue-culture treated plates by the Echo acoustic liquid handler. Yamato cells were counted and adjusted to 11,000 cells/mL with DMEM media supplemented with 10% heat-inactivated FBS. […]

Data set [2] deals with T1, BRD9 (Homo sapiens, UniProt Q9H8M2).
T1 sequence (Q9H8M2 1-597): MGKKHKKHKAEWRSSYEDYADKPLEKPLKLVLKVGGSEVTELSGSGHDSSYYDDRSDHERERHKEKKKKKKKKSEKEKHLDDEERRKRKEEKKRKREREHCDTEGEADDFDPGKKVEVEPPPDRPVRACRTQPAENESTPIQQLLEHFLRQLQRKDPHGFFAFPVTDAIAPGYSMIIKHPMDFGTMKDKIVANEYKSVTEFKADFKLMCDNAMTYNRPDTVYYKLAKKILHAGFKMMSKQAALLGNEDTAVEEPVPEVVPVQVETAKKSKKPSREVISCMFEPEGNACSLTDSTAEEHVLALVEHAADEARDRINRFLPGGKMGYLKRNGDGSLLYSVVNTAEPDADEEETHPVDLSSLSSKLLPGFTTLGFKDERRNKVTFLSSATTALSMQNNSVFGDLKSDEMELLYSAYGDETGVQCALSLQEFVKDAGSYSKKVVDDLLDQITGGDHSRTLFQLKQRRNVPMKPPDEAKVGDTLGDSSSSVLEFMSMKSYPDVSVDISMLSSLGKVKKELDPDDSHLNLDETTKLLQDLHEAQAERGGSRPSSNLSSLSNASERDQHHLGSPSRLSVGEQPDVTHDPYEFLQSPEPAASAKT
Description: HiBiT BRD9 degradation assay in 293T.166 (BRD9-HiBiT) cells. In kind it is cell-based. More on the design: endogenously expressing BRD9 with HiBiT fusion tag via CRISPR; host or cells: 293T.166 (BRD9-HiBiT), also expressing LgBiT ectopically. Summed up: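 293T.166 cells carrying endogenous CRISPR BRD9-HiBiT and expressing LgBiT treated 2 h at 37° C. with compounds, 11-point half-log titration from 10 μM in duplicate. Remaining BRD9 measured as lytic HiBiT luminescence; untreated cells as negative control, no-reagent wells as positive control.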

The nature of another data set: IV PK, mouse. In kind it is in vivo. The settings on record: for IV PK AUC(0-last) / IV PK Cmax: dose-normalised; for clearance / Vd / half-life: in vivo; for clearance: read-out: IV PK CL; for Vd: read-out: IV PK Vdss; for half-life: read-out: IV PK t1/2 (converted).
Data set [3] in a line: Hepatocyte stability, human. In kind it is in vitro ADME. The settings on record: human hepatocytes; read-out: Hepatocyte stability, Clint scaled ws.
Data set [4] concerns the target T1, BRD9. Kind of data set: Western blot, in-vivo BRD9 degradation in ASKA-SS tumors. More on the design: inoculated subcutaneously into BALB/c nude mice at the right flank for tumor development; from tissue; host or cells: Yamato-SS xenograft tumours in BALB/c nude mice; species or system BALB/c nude mice. The settings on record: single dose 10 or 75 mg/kg PO, FIG. 13. The procedure: ASKA-SS cells were maintained in vitro until exponential growth phase and inoculated subcutaneously into BALB/c nude mice at the right flank for tumor development. Mice were treated with single dose of Compound 172 at 10 or 75 mg/kg PO. Tumor were collected at indicated time points and snap frozen until lysis. Tumors were ground and lysed in RIPA Buffer containing 2× protease/phosphatase inhibitor using a freeze grinder at 50 Hz for 5 minutes. Protein concentrations were determined by Pierce™ BCA Protein Assay Kit. Samples were diluted to appropriate concentrations and run in a western blot.

The target of a further data set is CYP 2D6 (Homo sapiens, UniProt P10635). Kind of data set: CYP inhibition 2D6. In kind it is in vitro ADME.
Where [5] appears, read: Table 1, 293T.166 cells, 2.0 hours, class symbols, read-out: HiBiT-Degradation 293T.166 BRD9 2.0 hours (DC50).

Sequence of CYP 2D6 (P10635 whole entry): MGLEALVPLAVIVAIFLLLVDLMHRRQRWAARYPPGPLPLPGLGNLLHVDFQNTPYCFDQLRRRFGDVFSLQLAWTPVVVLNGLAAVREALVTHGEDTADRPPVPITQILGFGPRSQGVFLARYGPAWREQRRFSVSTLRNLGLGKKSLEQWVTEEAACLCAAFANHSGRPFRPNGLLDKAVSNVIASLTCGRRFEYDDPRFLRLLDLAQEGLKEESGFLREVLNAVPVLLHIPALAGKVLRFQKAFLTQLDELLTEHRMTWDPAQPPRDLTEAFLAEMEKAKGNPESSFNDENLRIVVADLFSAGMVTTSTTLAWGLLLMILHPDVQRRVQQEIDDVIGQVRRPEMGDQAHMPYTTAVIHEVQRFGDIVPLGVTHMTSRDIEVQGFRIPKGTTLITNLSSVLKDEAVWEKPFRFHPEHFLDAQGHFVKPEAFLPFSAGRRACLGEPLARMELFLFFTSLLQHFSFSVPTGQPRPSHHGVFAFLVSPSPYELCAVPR

On to `COc1cc(-c2cn(C)c(=O)c(C)c2C)cc(OC)c1CN1CCC(N2CCN(c3ccc(NC4CCC(=O)NC4=O)cc3F)CC2)C(F)(F)C1` (single isomer, unassigned) [Compound 176, 3-[4-[4-[1-[[2,6-dimethoxy-4-(1,4,5-trimethyl-6-oxo-3-pyridyl)phenyl]methyl]-3,3-difluoro-4-piperidyl]piperazin-1-yl]-3-fluoro-anilino]piperidine-2,6-dione], for which the “confluence as a percentage of control” value in data set [1] is listed as “A dose response is clearly visible”. Also, the DC50 at BRD9 [2] (setting [5]) was under 0.1 µM. In “IV PK, mouse”, the “IV PK AUC(0-last)” value is 2724 (h*ng/mL)/(mg/kg), the “IV PK Cmax” value was 720 [ng/mL]/(mg/kg), the clearance stood at 6.2 mL/min/kg and the Vd was found to be 2 L/kg. The half-life in the data set “IV PK, mouse” was 3.7 h. In addition, the CLint scaled in data set [3] amounted to 9.4 mL/min/kg.

As to `COc1cc(-c2cn(C)c(=O)c(C)c2C)cc(OC)c1CN1CCC(N2CCN(c3ccc(NC4CCC(=O)NC4=O)cc3F)CC2)C(F)(F)C1` (centres unmarked) [Compound 172, 3-[4-[4-[1-[[2,6-dimethoxy-4-(1,4,5-trimethyl-6-oxo-3-pyridyl)phenyl]methyl]-3,3-difluoro-4-piperidyl]piperazin-1-yl]-3-fluoro-anilino]piperidine-2,6-dione], the “in-vivo BRD9 degradation, western blot” value on BRD9 [4] is “dose dependent in-vivo BRD9 degradation”. In addition, in data set [1], the “confluence as a percentage of control” value was “A dose response is clearly visible”. Further, the “BRD9 degradation (2 h), Kendo 17 h, percent” value at BRD9 [2] (2 h) is 5%. Besides, the DC50 on BRD9 [2] (2 h, read-out: BRD9 degradation (2 h), Kendo 17 h, concentration) turned out to be 0.0034 µM. In addition, the DC50 at BRD9 [2] (setting [5]) was under 0.1 µM. Besides, in the data set “IV PK, mouse”, the “IV PK AUC(0-last)” value is listed as 4942 (h*ng/mL)/(mg/kg), the “IV PK Cmax” value was 1228 [ng/mL]/(mg/kg), the clearance worked out at 3.4 mL/min/kg and the Vd amounted to 1.1 L/kg. In addition, the half-life in “IV PK, mouse” is 3.6 h. In addition, the CLint scaled in data set [3] is 9.4 mL/min/kg. In addition, the IC50 against CYP 2D6 worked out at 30 µM.

These data come from patent US11691972B2, “Compounds for targeted degradation of BRD9” (C4 Therapeutics, Inc., priority 2020, dated 2023).
